Assay results from US8445476B2, “Carbacephem β-lactam antibiotics” (Achaogen, Inc., priority 2007, dated 2013).
Values after ≈ are worked out from the molar mass of the structure shown.

Columns and labels:
Type in all cases: cell-based
[1] = system: S. aureus ASAU001 (Susceptible Organism ATCC 29213); test: MIC assay, S. aureus ASAU001; details: Staphylococcus aureus, ATCC29213, read-out: MIC ASAU 001
Description: (§1) The in vitro MIC for bacterial isolates may be obtained in the following manner: a test compound is incorporated into a series of two-fold dilutions in cation adjusted Mueller-Hinton broth (CAMHB). Different bacterial strains diluted to provide a uniform inoculum are added to the CAMHB containing test compounds. A well without test compound is included for each strain as a growth control. […] The procedures used in these experiments are generally those standardized by the Clinical and Laboratory Standards Institute (CLSI), as set forth in the CLSI publication entitled “M7-A7. Methods for dilution antimicrobial susceptibility tests for bacteria that grow aerobically; approved standard-seventh edition.” (2006), which is incorporated by reference as if fully set forth herein. The following exemplifies such a procedure although it is to be understood that modifications of the procedure may be implemented as required.
(§2) Two-fold dilutions of the test compounds are prepared in CAMHB at 2× the concentration range to be tested if the compounds are soluble in aqueous solution. Alternately, dimethylsulfoxide (DMSO) is used to prepare two-fold dilutions at 10× the concentration range to be tested. Reference drugs such as cefotaxime, vancomycin or imipenem are used as positive controls. A few isolated colonies are retrieved from a pure culture prepared on an agar plate and suspended in PBS until the turbidity of the suspension matches a 0.5 McFarland standard which is equal to approximately 10^8 sCFU/mL. This solution is further diluted in CAMHB to 10^6CFU/mL if compounds are diluted in CAMHB and 5×10^5 CFU/mL if compounds are diluted in DMSO. The CAMHB plates containing the compound dilutions are combined in equal volumes with the higher density inoculum, or 10 μL of the DMSO dilutions are added to the lower density inoculum. When S. aureus is the organism being tested and the compound is oxacillin, a beta-lactam or a carbacephem compound of the present invention, 2% NaCl is added to the growth media. The plates are then incubated for 16-20 hours at 35° C. The plates are then observed to determine which concentration of the test compound is the MIC.

[2] = system: S. aureus ASAU1028 (CA-MRSA, USA400); test: MIC assay, S. aureus ASAU1028; details: Staphylococcus aureus, read-out: MIC ASAU 1028
Description: as §1, §2

[3] = system: S. aureus ASAU1029 (CA-MRSA, USA300); test: MIC assay, S. aureus ASAU1029; details: Staphylococcus aureus, read-out: MIC ASAU 1029
Description: as §1, §2

[4] = system: S. aureus ASAU1043 (MRSA, CIP, ERY, CLI, GEN resistant); test: MIC assay, S. aureus ASAU1043; details: Staphylococcus aureus, read-out: MIC ASAU 1043
Description: as §1, §2

[5] = system: S. aureus ASAU1033 (MRSA, CIP, ERY, CLIN, TET, GEN resistant); test: MIC assay, S. aureus ASAU1033; details: Staphylococcus aureus, read-out: MIC ASAU 1033
Description: as §1, §2

Row | Structure (SMILES) | MIC [1] [µg/mL] | MIC [2] [µg/mL] | MIC [3] [µg/mL] | MIC [4] [µg/mL] | MIC [5] [µg/mL]
1 | Nc1nc(/C(=N/O)C(=O)N[C@@H]2C(=O)N3C(C(=O)O)=C(Sc4cccnc4CSC4CCNC4)CC[C@H]23)c(Cl)s1 (stereo partly drawn) [30/1, (6R,7S,Z)-7-(2-(2-amino-5-chlorothiazol-4-yl)-2-(hydroxyimino)acetamido)-8-oxo-3-(2-((pyrrolidin-3-ylthio)methyl)pyridin-3-ylthio)-1-aza-bicyclo[4.2.0]oct-2-ene-2-carboxylic acid] | ≤ 1 | ≤ 1 | ≤ 1 | 1 to 8 (≈ 1.64 to 13.1 µM) | 1 to 8 (≈ 1.64 to 13.1 µM)
2 | CO/N=C(\C(=O)N[C@@H]1C(=O)N2C(C(=O)O)=C(Sc3ccncc3CSCCN)CC[C@H]12)c1nsc(N)n1 [52/1, (6R,7S,Z)-7-(2-(5-amino-1,2,4-thiadiazol-3-yl)-2-(methoxyimino)acetamido)-3-(3-((2-aminoethylthio)methyl)pyridin-4-ylthio)-8-oxo-1-aza-bicyclo[4.2.0]oct-2-ene-2-carboxylic acid] | ≤ 1 | 1 to 8 (≈ 1.77 to 14.2 µM) | 1 to 8 (≈ 1.77 to 14.2 µM) | > 8 | 1 to 8 (≈ 1.77 to 14.2 µM)
3 | Nc1nc(/C(=N/O)C(=O)N[C@@H]2C(=O)N3C(C(=O)O)=C(Sc4cccnc4N)CC[C@H]23)c(Cl)s1 [28/1, (6R,7S,Z)-7-(2-(2-amino-5-chlorothiazol-4-yl)-2-(hydroxyimino)acetamido)-3-(2-aminopyridin-3-ylthio)-8-oxo-1-aza-bicyclo[4.2.0]oct-2-ene-2-carboxylic Acid] | ≤ 1 | ≤ 1 | 1 to 8 (≈ 1.96 to 15.7 µM) | > 8 | > 8
4 | CO/N=C(\C(=O)N[C@@H]1C(=O)N2C(C(=O)O)=C(Sc3nncs3)CC[C@H]12)c1nsc(N)n1 [50/1, (6R,7S,Z)-3-(1,3,4-thiadiazol-2-ylthio)-7-(2-(5-amino-1,2,4-thiadiazol-3-yl)-2-(methoxyimino)acetamido)-8-oxo-1-aza-bicyclo[4.2.0]oct-2-ene-2-carboxylic Acid] | ≤ 1 | 1 to 8 (≈ 2.07 to 16.6 µM) | 1 to 8 (≈ 2.07 to 16.6 µM) | > 8 | > 8
5 | Nc1nc(/C(=N/O)C(=O)N[C@@H]2C(=O)N3C(C(=O)O)=C(Sc4nnc(N)s4)CC[C@H]23)ns1 [45/1, (6R,7S,Z)-7-(2-(5-amino-1,2,4-thiadiazol-3-yl)-2-(hydroxyimino)acetamido)-3-(5-amino-1,3,4-thiadiazol-2-ylthio)-8-oxo-1-aza-bicyclo[4.2.0]oct-2-ene-2-carboxylic Acid] | ≤ 1 | 1 to 8 (≈ 2.07 to 16.5 µM) | ≤ 1 | > 8 | > 8
6 | CNCCSCc1ncccc1SC1=C(C(=O)O)N2C(=O)[C@@H](NC(=O)/C(=N\OC)c3nc(N)sc3Cl)[C@H]2CC1 [41/1, (6R,7S,Z)-7-(2-(2-amino-5-chlorothiazol-4-yl)-2-(methoxyimino)acetamido)-3-(2-((2-(methylamino)ethylthio)methyl)pyridin-3-ylthio)-8-oxo-1-aza-bicyclo[4.2.0]oct-2-ene-2-carboxylic Acid] | ≤ 1 | 1 to 8 (≈ 1.63 to 13.1 µM) |  | > 8 | > 8
7 | NCCSCc1ncccc1SC1=C(C(=O)O)N2C(=O)[C@@H](NC(=O)/C(=N\O)c3nsc(N)n3)[C@H]2CC1 [47/1, (6R,7S,Z)-7-(2-(5-amino-1,2,4-thiadiazol-3-yl)-2-(hydroxyimino)acetamido)-3-(2-((2-aminoethylthio)methyl)pyridin-3-ylthio)-8-oxo-1-aza-bicyclo[4.2.0]oct-2-ene-2-carboxylic Acid] | ≤ 1 | 1 to 8 (≈ 1.82 to 14.5 µM) | ≤ 1 | 1 to 8 (≈ 1.82 to 14.5 µM) | 1 to 8 (≈ 1.82 to 14.5 µM)
8 | NCCc1ncccc1SC1=C(C(=O)O)N2C(=O)[C@@H](NC(=O)/C(=N\O)c3nc(N)sc3Cl)[C@H]2CC1 [32/1, (6R,7S,Z)-7-(2-(2-amino-5-chlorothiazol-4-yl)-2-(hydroxyimino)acetamido)-3-(2-(2-aminoethyl)pyridin-3-ylthio)-8-oxo-1-aza-bicyclo[4.2.0]oct-2-ene-2-carboxylic Acid] | ≤ 1 |  | > 8 | > 8 | 1 to 8 (≈ 1.86 to 14.9 µM)
9 | NCc1ncccc1SC1=C(C(=O)O)N2C(=O)[C@@H](NC(=O)/C(=N\O)c3nc(N)sc3Cl)[C@H]2CC1 [31/1, (6R,7S,Z)-7-(2-(2-amino-5-chlorothiazol-4-yl)-2-(hydroxyimino)acetamido)-3-(2-(aminomethyl)pyridin-3-ylthio)-8-oxo-1-aza-bicyclo[4.2.0]oct-2-ene-2-carboxylic Acid] | ≤ 1 | ≤ 1 | ≤ 1 | 1 to 8 (≈ 1.91 to 15.3 µM) | 1 to 8 (≈ 1.91 to 15.3 µM)
10 | CO/N=C(\C(=O)N[C@@H]1C(=O)N2C(C(=O)O)=C(Sc3cccnc3CSCCN)CC[C@H]12)c1nsc(N)n1 [51/1, (6R,7S,Z)-7-(2-(5-amino-1,2,4-thiadiazol-3-yl)-2-(methoxyimino)acetamido)-3-(2-((2-aminoethylthio)methyl)pyridin-3-ylthio)-8-oxo-1-aza-bicyclo[4.2.0]oct-2-ene-2-carboxylic Acid] | ≤ 1 | 1 to 8 (≈ 1.77 to 14.2 µM) | 1 to 8 (≈ 1.77 to 14.2 µM) | > 8 | > 8
11 | Nc1nc(/C(=N/O)C(=O)N[C@@H]2C(=O)N3C(C(=O)O)=C(Sc4nncs4)CC[C@H]23)ns1 [46/1, (6R,7S,Z)-3-(1,3,4-thiadiazol-2-ylthio)-7-(2-(5-amino-1,2,4-thiadiazol-3-yl)-2-(hydroxyimino)acetamido)-8-oxo-1-aza-bicyclo[4.2.0]oct-2-ene-2-carboxylic Acid] | ≤ 1 | 1 to 8 (≈ 2.13 to 17.1 µM) | ≤ 1 | > 8 | > 8
12 | CNCCSCc1ncccc1SC1=C(C(=O)O)N2C(=O)[C@@H](NC(=O)/C(=N\O)c3nc(N)sc3Cl)[C@H]2CC1 [29/1, (6R,7S,Z)-7-(2-(2-amino-5-chlorothiazol-4-yl)-2-(hydroxyimino)acetamido)-3-(2-((2-(methylamino)ethylthio)methyl)pyridin-3-ylthio)-8-oxo-1-aza-bicyclo[4.2.0]oct-2-ene-2-carboxylic acid] | ≤ 1 | ≤ 1 | ≤ 1 | 1 to 8 (≈ 1.67 to 13.4 µM) | 1 to 8 (≈ 1.67 to 13.4 µM)

Other lines, results leading:

Row | MIC [1] [µg/mL] | MIC [2] [µg/mL] | MIC [3] [µg/mL] | MIC [4] [µg/mL] | MIC [5] [µg/mL] | Structure (SMILES)
13 | ≤ 1 | 1 to 8 (≈ 2.17 to 17.3 µM) | ≤ 1 | > 8 | > 8 | Nc1nc(/C(=N/O)C(=O)N[C@@H]2C(=O)N3C(C(=O)O)=C(Sc4ccncc4)CC[C@H]23)ns1 [44/1, (6R,7S,Z)-7-(2-(5-amino-1,2,4-thiadiazol-3-yl)-2-(hydroxyimino)acetamido)-8-oxo-3-(pyridin-4-ylthio)-1-aza-bicyclo[4.2.0]oct-2-ene-2-carboxylic Acid]
14 | ≤ 1 | 1 to 8 (≈ 1.96 to 15.7 µM) | > 8 | > 8 | 1 to 8 (≈ 1.96 to 15.7 µM) | CO/N=C(\C(=O)N[C@@H]1C(=O)N2C(C(=O)O)=C(Sc3ccncc3)CC[C@H]12)c1nc(N)sc1Cl [37/1, (6R,7S,Z)-7-(2-(2-amino-5-chlorothiazol-4-yl)-2-(methoxyimino)acetamido)-8-oxo-3-(pyridin-4-ylthio)-1-aza-bicyclo[4.2.0]oct-2-ene-2-carboxylic Acid]
15 | ≤ 1 | 1 to 8 (≈ 2.02 to 16.2 µM) | > 8 | > 8 | > 8 | Nc1nc(/C(=N/O)C(=O)N[C@@H]2C(=O)N3C(C(=O)O)=C(Sc4cccnc4)CC[C@H]23)c(Cl)s1 [34/1, (6R,7S,Z)-7-(2-(2-amino-5-chlorothiazol-4-yl)-2-(hydroxyimino)acetamido)-8-oxo-3-(pyridin-3-ylthio)-1-aza-bicyclo[4.2.0]oct-2-ene-2-carboxylic Acid]
16 | ≤ 1 | 1 to 8 (≈ 2.1 to 16.8 µM) | 1 to 8 (≈ 2.1 to 16.8 µM) | > 8 | > 8 | CO/N=C(\C(=O)N[C@@H]1C(=O)N2C(C(=O)O)=C(Sc3ccncc3)CC[C@H]12)c1nsc(N)n1 [53/1, (6R,7S,Z)-7-(2-(5-amino-1,2,4-thiadiazol-3-yl)-2-(methoxyimino)acetamido)-8-oxo-3-(pyridin-4-ylthio)-1-aza-bicyclo[4.2.0]oct-2-ene-2-carboxylic Acid]
17 | ≤ 1 | > 8 | > 8 | > 8 | > 8 | CO/N=C(\C(=O)N[C@@H]1C(=O)N2C(C(=O)O)=C(Sc3cccnc3CN)CC[C@H]12)c1nc(N)sc1Cl [43/1, (6R,7S,Z)-7-(2-(2-amino-5-chlorothiazol-4-yl)-2-(methoxyimino)acetamido)-3-(2-(aminomethyl)pyridin-3-ylthio)-8-oxo-1-aza-bicyclo[4.2.0]oct-2-ene-2-carboxylic acid]
